Assay results published in patent US8242274B2, “Triazolopyridine kinase inhibitors useful for the treatment of degenerative and inflammatory diseases” (Galapagos NV, priority 2008, dated 2012).

Assays:
[1] = Microsomal stability, human; assay type: in vitro ADME; conditions: human liver microsomes, 3 μM compound, 37° C.
Method: A 10 mM stock solution of compound in DMSO was diluted 1000 fold in a 182 mM phosphate buffer pH 7.4 in a 96 deep well plate (Greiner, Cat no. 780285) and pre-incubated at 37° C.
40 μL of deionised water was added to a well of a polypropylene Matrix 2D barcode labelled storage tube (Thermo Scientific) and pre-incubated at 37° C.
A Glucose-6-phosphate-dehydrogenase (G6PDH) working stock solution was prepared in 182 mM phosphate buffer pH7.4 and placed on ice before use. A co-factor containing MgCl2, glucose-6-phosphate and NADP+ was prepared in deionised water and placed on ice before use.
A final working solution containing liver microsomes (Xenotech) of a species of interest (human, mouse, rat, dog), previously described G6PDH and co-factors was prepared and this mix was incubated for no longer than 20 minutes at room temperature.
30 μL of the pre-heated compound dilution was added to 40 μL of pre-heated water in the Matrix tubes and 30 μL of the microsomal mix was added. Final reaction concentrations were 3 μM compound, 1 mg microsomes, 0.4 U/mL GDPDH, 3.3 mM MgCl2, 3.3 mM glucose-6-phosphate and 1.3 mM NADP+.
To measure percentage remaining of compound at time zero MeOH or ACN was added (1:1) to the well before adding the microsomal mix. The plates were sealed with Matrix Sepra Seals™ (Matrix, Cat. No. 4464) and shaken for a few seconds ensure complete mixing of all components.
The samples which were not stopped are incubated at 37° C., 300 rpm and after 1 hour of incubation the reaction was stopped with MeOH or ACN (1:1).
After stopping the reaction the samples were mixed and placed on ice for 30 min to precipitate the proteins. The plates were then centrifuged 30 min at 1200 rcf at 4° C. and the supernatant was transferred to a 96 v-bottom PP plate (Greiner, 651201) for analysis on LCMS.
These plates were sealed with sealing mats (MA96RD-04S) of www.kinesis.co.uk and samples were measured at room temperature on LCMS (ZQ 1525 from Waters) under optimized conditions using Quanoptimize to determine the appropriate mass of the parent molecule.
The samples were analyzed on LCMS with a flow rate of 1 mL/min. Solvent A was 15 mM ammonia and solvent B was methanol or acetonitrile, depending on the stop solution used. The samples were run under positive ion spray on an XBridge C18 […] (2.1×30 mm) column, from Waters.
Peak area from the parent compound at time 0 was considered to be 100% remaining. The percentage remaining after 1 hour incubation was calculated from time 0 and was calculated as the percentage remaining. The solubility of the compound in the final test concentration in buffer is inspected by microscope and results are reported.
The data on microsomal stability are expressed as a percentage of the total amount of compound remaining after 60 minutes.

[2] = Caco2 permeability, bi-directional; assay type: in vitro ADME; conditions: human; for Papp A→B at 1 h, 10 μM: Caco-2, pH 7.4
Method: Bi-directional Caco-2 assays were performed as described below. Caco-2 cells were obtained from European Collection of Cell Cultures (ECACC, cat 86010202) and used after a 21 day cell culture in 24-well Transwell plates (Fisher TKT-545-020B).
2×10^5 cells/well were seeded in plating medium consisting of DMEM+GlutaMAXI+1% NEAA+10% FBS (FetalClone II)+1% Pen/Strep. The medium was changed every 2-3 days.
Test and reference compounds (propranolol and rhodamine 123 or vinblastine, all purchased from Sigma) were prepared in Hanks' Balanced Salt Solution containing 25 mM HEPES (pH 7.4) and added to either the apical (125 μL) or basolateral (600 μL) chambers of the Transwell plate assembly at a concentration of 10 μM with a final DMSO concentration of 0.25%.
50 μM Lucifer Yellow (Sigma) was added to the donor buffer in all wells to assess integrity of the cell layers by monitoring Lucifer Yellow permeation. As Lucifer Yellow (LY) cannot freely permeate lipophilic barriers, a high degree of LY transport indicates poor integrity of the cell layer.
After a 1 hour incubation at 37° C. while shaking at an orbital shaker at 150 rpm, 70 μL aliquots were taken from both apical (A) and basal (B) chambers and added to 100 μLl 50:50 acetonitrile:water solution containing analytical internal standard (0.5 μM carbamazepine) in a 96 well plate.
Lucifer yellow was measured with a Spectramax Gemini XS (Ex 426 nm and Em 538 nm) in a clean 96 well plate containing 150 μL of liquid from basolateral and apical side.
Concentrations of compound in the samples were measured by high performance liquid-chromatography/mass spectroscopy (LC-MS/MS).
The Efflux ratios, as an indication of active efflux from the apical cell surface, were calculated using the ratio of PappB>A/PappA>B.

Structure (SMILES) | Microsomal stability Human (%), compound remaining after 60 minutes [1] [%] | Papp A→B at 1 h, 10 μM [2] [×10⁻⁶ cm/s] | efflux ratio at 1 h, 10 μM ([2]; Caco-2, pH 7.4, PappB>A/PappA>B)
CC(=O)Nc1ccc(COc2ccc(-c3cccc4nc(NC(=O)C5CC5)nn34)cc2)cc1 [Compound 92, N-(5-(4-(4-acetamidobenzyloxy)phenyl)-[1,2,4]triazolo[1,5-a]pyridin-2-yl)cyclopropanecarboxamide] | 30.21 | – | –
N#Cc1ccc(COc2ccc(-c3cccc4nc(NC(=O)C5CC5)nn34)cc2)cn1 [Compound 176, N-(5-(4-((6-cyanopyridin-3-yl)methoxy)phenyl)-[1,2,4]triazolo[1,5-a]pyridin-2-yl)cyclopropanecarboxamide] | 157.1 | 10.6 | –
O=C(Nc1nc2cccc(-c3ccc(NCc4ccccc4)cc3)n2n1)C1CC1 [Compound 72, N-(5-(4-(benzylamino)phenyl)-[1,2,4]triazolo[1,5-a]pyridin-2-yl)cyclopropanecarboxamide] | 4.88 | 14.9 | –
O=C(Nc1nc2cccc(-c3ccc(OCc4cccnc4)cc3)n2n1)C1CC1 [Compound 36, N-(5-(4-(pyridin-3-ylmethoxy)phenyl)-[1,2,4]triazolo[1,5-a]pyridin-2-yl)cyclopropanecarboxamide] | 11.65 | 36.5 | –
O=C(Nc1nc2cccc(-c3ccc(OCc4ccccc4)nc3)n2n1)C1CC1 [Compound 57, Cyclopropanecarboxylic acid [5-(6-benzyloxy-pyridin-3-yl)-[1,2,4]triazolo[1,5-a]pyridin-2-yl]-amide] | 42.75 | – | –
O=C(Nc1nc2cccc(-c3ccc(OCc4ccccc4)cc3)n2n1)C1CC1 [Compound 12, N-(5-(4-(benzyloxy)phenyl)-[1,2,4]triazolo[1,5-a]pyridin-2-yl)cyclopropanecarboxamide] | 70 | – | –
O=C(Nc1nc2cccc(-c3ccc(OCc4ccc(C(F)(F)F)nc4)cc3)n2n1)C1CC1 [Compound 78, N-(5-(4-((6-(trifluoromethyl)pyridin-3-yl)methoxy)phenyl)-[1,2,4]triazolo[1,5-a]pyridin-2-yl)cyclopropanecarboxamide] | 78.21 | 2 | –
O=C(Nc1nc2cccc(-c3ccc(OCc4ccccn4)cc3)n2n1)C1CC1 [Compound 37, N-(5-(4-(pyridin-2-ylmethoxy)phenyl)-[1,2,4]triazolo[1,5-a]pyridin-2-yl)cyclopropanecarboxamide] | 70.98 | 23 | 0.85
